We go through 53 compounds from paper PMC6017732, “Identification and Characterizations of Novel, Selective Histone Methyltransferase SET7 Inhibitors by Scaffold Hopping- and 2D-Molecular Fingerprint-Based Similarity Search” (Molecules : A Journal of Synthetic Chemistry and Natural …, 2018).

For one experiment, the target named is T1, SET7 (Homo sapiens, UniProt Q8WTS6).
T1 sequence (Q8WTS6 1-366): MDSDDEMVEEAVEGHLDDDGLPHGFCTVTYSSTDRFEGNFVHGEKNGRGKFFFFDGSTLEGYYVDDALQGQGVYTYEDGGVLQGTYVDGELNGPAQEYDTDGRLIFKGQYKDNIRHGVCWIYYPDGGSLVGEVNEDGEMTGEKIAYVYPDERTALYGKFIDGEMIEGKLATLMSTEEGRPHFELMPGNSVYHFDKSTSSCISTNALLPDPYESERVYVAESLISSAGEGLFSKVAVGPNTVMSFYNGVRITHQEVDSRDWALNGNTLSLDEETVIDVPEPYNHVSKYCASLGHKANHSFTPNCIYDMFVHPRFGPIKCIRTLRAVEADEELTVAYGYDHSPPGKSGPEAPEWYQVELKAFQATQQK
The experiment can be described thus: AlphaLISA SET7 inhibition assay. Particulars: AlphaLISA assay, SAR discussion. The experiment is classed as biochemical. The method, then: AlphaLISA assays were applied to determine the inhibitory activity targeting SET7. The purified SET7 protein was incubated in modified Tris buffer in 384-well plates (Perkin Elmer, Cat. No. 6007299, Waltham, MA, USA) at room temperature for 15 min. The compounds were transferred to the assay plate using Echo in 100% DMSO, and substrate solution was added to each well to start the reaction. Acceptor and donor beads were added and incubated for 60 min at room temperature, shielded from light. The endpoint was evaluated with EndSpire in Alpha mode. The experimental data was fitted in GraphPad Prism 5 to obtain inhibition values using the equation as follows:(1) Inhibition %= Max−Siginal/Max−Min×100%
Background: Bead proximity is the source of the signal in Alpha formats.
Take `COc1cc(/C=N/NC(=O)c2ccc(-c3ccccc3)cc2)c([N+](=O)[O-])cc1OC` [DC-S305]: the “activity against SET7 (in words)” value is listed as “no activity”.

Still in this experiment, the particulars now being: AlphaLISA assay, SET7.
As for `COc1cc(/C=N/NC(=O)c2ccc(-c3ccccc3)cc2)ccc1OC(C)=O` [DC-S306], the IC50 (as a rule, the concentration that gives 50% inhibition) is 20 µM. Same read-out and setting: next, `O=C(CCC(=O)N/N=C/c1cc([N+](=O)[O-])ccc1Cl)NCc1ccccc1` [DC-S314]: 46 µM; `O=C(NNC(=O)c1ccc([N+](=O)[O-])cc1)c1ccc(-c2ccccc2)cc1` [DC-S334]: 9.9 µM; `O=C(NN=Cc1cc2c(cc1Br)OCO2)c1ccc([N+](=O)[O-])cc1` [DC-S351]: 3.4 µM. As for `O=C(NN=Cc1ccc(-c2ccccc2Cl)o1)c1ccc([N+](=O)[O-])cc1` [DC-S364], it took 3.7 µM to reach half-maximal inhibition (IC50).

The same experiment, now with this note: AlphaLISA assay, SET7, 100 μM; read-out: Inhibition Ratio at 100 μM/%.
As to `O=C(N/N=C/c1ccc(Cl)c([N+](=O)[O-])c1)c1ccc(-c2ccccc2)cc1` [DC-S304], the inhibition at 100 µM worked out at 44%. As to `COc1cc(/C=N/NC(=O)c2ccc(-c3ccccc3)cc2)c([N+](=O)[O-])cc1OC` [DC-S305], the inhibition at 100 µM was -5%. As to `COc1cc(/C=N/NC(=O)c2ccc(-c3ccccc3)cc2)ccc1OC(C)=O` [DC-S306], the inhibition at 100 µM was 94%. Still for that read-out and setting: next, `COc1ccc(/C=N/NC(=O)c2ccc(-c3ccccc3)cc2)cc1O` [DC-S307]: 8%; `COc1ccc(/C=N/NC(=O)c2ccc(-c3ccccc3)cc2)c(OC)c1Br` [DC-S308]: 7%. With `Cc1cccc(/C=N/NC(=O)c2ccc(-c3ccccc3)cc2)c1` [DC-S309], the inhibition at 100 µM was -5%. The same measure, in the same setting: the result for `CCOc1ccc(/C=N/NC(=O)c2ccc(-c3ccccc3)cc2)c(OCC)c1` [DC-S310] reads -6%; that for `O=C(N/N=C/c1cccc(Cl)c1Cl)c1ccc(-c2ccccc2)cc1` [DC-S312], -3%. In the case of `O=C(N/N=C/c1c(Cl)cccc1Cl)c1ccc(-c2ccccc2)cc1` [DC-S313], the inhibition at 100 µM is -6%. Take `O=C(CCC(=O)N/N=C/c1cc([N+](=O)[O-])ccc1Cl)NCc1ccccc1` [DC-S314]: the inhibition at 100 µM turned out to be 77%. Take `O=C(N/N=C/c1cc([N+](=O)[O-])ccc1Cl)C(c1ccccc1)c1ccccc1` [DC-S315]: the inhibition at 100 µM is 46%.

Consider `O=C(N/N=C/c1cc([N+](=O)[O-])ccc1Cl)c1cccc(O)c1` [DC-S316], for which the inhibition at 100 µM is 37%. On the same count and under the same terms, next, `COC(=O)N/N=C/c1cc([N+](=O)[O-])ccc1Cl` [DC-S318]: 17%; `Nc1ccccc1C(=O)N/N=C/c1cc([N+](=O)[O-])ccc1Cl` [DC-S319]: 14%. With `O=C(N/N=C/c1cc([N+](=O)[O-])ccc1Cl)c1ccc(O)cc1` [DC-S320], the inhibition at 100 µM is 11%. Regarding `O=C(N/N=C/c1cc([N+](=O)[O-])ccc1Cl)c1ccc(O)cc1O` [DC-S321], the inhibition at 100 µM was 9%. As for `O=C(NNC(=O)c1ccc([N+](=O)[O-])cc1)c1ccc(-c2ccccc2)cc1` [DC-S334], the inhibition at 100 µM turned out to be 96%. With `O=C(NNC(=O)c1cccc([N+](=O)[O-])c1)c1ccc(-c2ccccc2)cc1` [DC-S335], the inhibition at 100 µM worked out at 12%.

With `COc1ccc(C(=O)NNC(=O)c2ccc(-c3ccccc3)cc2)cc1` [DC-S336], the inhibition at 100 µM was 49%. On the same count and under the same terms, next, `O=C(NNC(=O)c1ccc(-c2ccccc2)cc1)c1ccccc1` [DC-S337]: 1%; `O=C(NNC(=O)c1cccc(Cl)c1)c1ccc(-c2ccccc2)cc1` [DC-S338]: 1%. In the case of `O=C(NNC(=O)c1ccc(-c2ccccc2)cc1)c1ccc(F)cc1` [DC-S339], the inhibition at 100 µM was -6%. Same read-out and setting: the result for `O=C(CCc1ccccc1)NNC(=O)c1ccc(-c2ccccc2)cc1` [DC-S340] reads -6%; that for `O=C(NNC(=O)c1ccccc1C(=O)O)c1ccc(-c2ccccc2)cc1` [DC-S341], -10%; that for `O=C(NNC(=O)C(F)(F)F)c1ccc(-c2ccccc2)cc1` [DC-S342], -13%.

`O=C(NN=Cc1ccc(Cl)s1)c1ccc([N+](=O)[O-])cc1` [DC-S344]: the inhibition at 100 µM worked out at 32%.

With `O=C(NN=Cc1cccc(Cl)c1)c1ccc([N+](=O)[O-])cc1` [DC-S345], the inhibition at 100 µM came to 29%. `Nc1ccc(C=NNC(=O)c2ccc([N+](=O)[O-])cc2)cc1` [DC-S346]: the inhibition at 100 µM came out at 21%. Same read-out and setting: the result for `O=C(NN=Cc1ccc[nH]1)c1ccc([N+](=O)[O-])cc1` [DC-S347] reads 10%; that for `Cc1c(C=NNC(=O)c2ccc([N+](=O)[O-])cc2)cnn1C` [DC-S348], -11%; that for `O=C(NN=Cc1cc2c(cc1[N+](=O)[O-])OCO2)c1ccc([N+](=O)[O-])cc1` [DC-S349], -1%. For the compound `O=C(NN=Cc1cn(Cc2ccc(Cl)cc2Cl)c2ccccc12)c1ccc([N+](=O)[O-])cc1` [DC-S350], the inhibition at 100 µM was determined as 6%.

Consider `O=C(NN=Cc1cc2c(cc1Br)OCO2)c1ccc([N+](=O)[O-])cc1` [DC-S351], for which the inhibition at 100 µM turned out to be 96%.

Take `COc1cc(OC)c(C=NNC(=O)c2ccc([N+](=O)[O-])cc2)cc1Br` [DC-S352]: the inhibition at 100 µM came out at 39%. Still for that read-out and setting: next, `COc1ccc(C=NNC(=O)c2ccc([N+](=O)[O-])cc2)cc1` [DC-S353]: 35%; `O=C(NN=Cc1cc([N+](=O)[O-])ccc1N1CCCCC1)c1ccc([N+](=O)[O-])cc1` [DC-S354]: 35%.

In the case of `O=C(NN=Cc1ccccc1OC(=O)c1ccc([N+](=O)[O-])cc1)c1ccc([N+](=O)[O-])cc1` [DC-S355], the inhibition at 100 µM was 20%. On the same count and under the same terms, the result for `O=C(NN=Cc1c[nH]nc1-c1ccc(Cl)cc1)c1ccc([N+](=O)[O-])cc1` [DC-S356] reads 17%; that for `COc1ccc(C=NNC(=O)c2ccc([N+](=O)[O-])cc2)c2ccccc12` [DC-S357], 13%. Turning to `O=C(NN=Cc1ccccc1OC(=O)c1ccc(Cl)cc1)c1ccc([N+](=O)[O-])cc1` [DC-S358], the inhibition at 100 µM was determined as 6%. `O=C(NN=Cc1c(OC(=O)c2ccc(Cl)cc2)ccc2ccccc12)c1ccc([N+](=O)[O-])cc1` [DC-S359]: the inhibition at 100 µM is 5%. In the case of `COc1ccc(-c2ccc(C=NNC(=O)c3ccc([N+](=O)[O-])cc3)o2)cc1Cl` [DC-S360], the inhibition at 100 µM was found to be 4%. For `COc1ccc2ccccc2c1C=NNC(=O)c1ccc([N+](=O)[O-])cc1` [DC-S361], the inhibition at 100 µM is -1%. For the compound `COc1cc(C=NNC(=O)c2ccc([N+](=O)[O-])cc2)ccc1OC(C)=O` [DC-S362], the inhibition at 100 µM was -4%.

In the case of `O=C(NN=Cc1ccccc1OCc1cccc(Br)c1)c1ccc([N+](=O)[O-])cc1` [DC-S363], the inhibition at 100 µM is -15%.

`O=C(NN=Cc1ccc(-c2ccccc2Cl)o1)c1ccc([N+](=O)[O-])cc1` [DC-S364]: the inhibition at 100 µM came out at 54%. As for `COc1ccc(C(=O)NN=Cc2ccc([N+](=O)[O-])cc2)cc1OC` [DC-S365], the inhibition at 100 µM was determined as 10%.

For `O=C(NN=Cc1ccc([N+](=O)[O-])cc1)c1ccc(CSc2ccccc2)cc1` [DC-S366], the inhibition at 100 µM was 9%.

On to `O=C(NN=Cc1ccc([N+](=O)[O-])cc1)c1cccc(Cl)c1` [DC-S367], for which the inhibition at 100 µM is -1%.

In the next experiment the target is T1, SET7. The experiment can be described thus: 3H-labeled radioisotope methylation assay. The conditions noted are these: 3H radioactive methylation assay. The experiment is classed as biochemical. The method, then: As for ^3Hradioactive methylation assay, SAH was used as the reference compound and the compounds were tested in 10 concentrations in duplicate in modified Tris buffer (1× assay buffer). The following materials were purchased: SET7 (Enzo, Cat. No. ALX-201-178, New York, NY, USA), [^3H]-SAM (PerkinElmer Inc., Lot. No. 1790854), SAH (Sigma, Cat. No. A9384-25MG, St. Louis, MO, USA) and 384-well Flashplate (Perkin Elmer, Cat. No. SMP410A001PK,). The compounds were transferred to the assay plate by Echo 550 with 3-fold dilution in 100% DMSO where the final DMSO concentration is 1%. Then the enzyme solution was transferred to the assay plate and 1× assay buffer was transferred for low control. After 15 min incubation at room temperature, peptide and [^3H]-SAM mix solution was transferred to each well to start the reaction. The cold SAM in 1× buffer was added to each well to stop the reaction after 60 min incubation at room temperature. 25 μL of the whole reaction system per well was transferred to Flashplate which was washed with dH2O and 0.1% Tween-20 for three times after 60 min incubation. The data was read on Microbeta. All the inhibition assays are performed in duplicate.
On to `Nc1ncnc2c1ncn2[C@@H]1O[C@H](CSCC[C@H](N)C(=O)O)[C@@H](O)[C@H]1O` [SAH, reference compound], for which the IC50 turned out to be 5.4 µM.

The subject of a further experiment is SET7.
Experiment: not given
Particulars: SET7, previous research of the authors; cited from earlier work.
Turning to `COC(=O)c1c(N)sc(C(=O)Nc2cccc([N+](=O)[O-])c2)c1C` [DC-S238], the IC50 was 4.9 µM. In the case of `CCOC(=O)c1c(N)sc(C(=O)Nc2cccc([N+](=O)[O-])c2)c1C` [DC-S239], the IC50 was 4.6 µM.

The experiment is the same for the next values; noted with them: SET7; cited from earlier work.
For `O=C([C@@H](Cc1cccc(C(F)(F)F)c1)NS(=O)(=O)c1cc(F)c2c(c1)CCNC2)N1CCCC1` [(R)-PFI-2], the 50% inhibitory concentration (IC50) is 0.002 µM.
